Source: PubChem BioAssay (NCI)
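Cultured in 96-well plates, cells were exposed to test compound for 48 hours across five concentrations. The concentration for 50% growth inhibition is given as GI50. Definition used: TGI = concentration required for complete inhibition of growth.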

Legend:
Test in all cases: growth of human tumour cells (NCI), 48 h
COLO 205 colon = tested on: COLO 205 colon
MCF7 breast = tested on: MCF7 breast
MDA-MB-435 = tested on: MDA-MB-435
MOLT-4 leukemia = tested on: MOLT-4 leukemia
NCI-H522 lung = tested on: NCI-H522 lung
SF-268 CNS = tested on: SF-268 CNS
SF-539 CNS = tested on: SF-539 CNS
SK-MEL-2 melanoma = tested on: SK-MEL-2 melanoma
SK-MEL-28 melanoma = tested on: SK-MEL-28 melanoma
U251 CNS = tested on: U251 CNS

SMILES | GI50 (COLO 205 colon) | TGI (COLO 205 colon) | GI50 (MCF7 breast) | TGI (MCF7 breast) | GI50 (MDA-MB-435) | TGI (MDA-MB-435) | GI50 (MOLT-4 leukemia) | TGI (MOLT-4 leukemia) | GI50 (NCI-H522 lung) | TGI (NCI-H522 lung) | GI50 (SF-268 CNS) | TGI (SF-268 CNS) | GI50 (SF-539 CNS) | TGI (SF-539 CNS) | GI50 (SK-MEL-2 melanoma) | TGI (SK-MEL-2 melanoma) | GI50 (SK-MEL-28 melanoma) | TGI (SK-MEL-28 melanoma) | GI50 (U251 CNS) | TGI (U251 CNS)
CCOC1OC(=O)[C@H]2[C@@H]1[C@@H]1CC[C@H]2O1 (stereo partly drawn) | 7.96 µM | > 19.8 µM | > 100 µM | > 100 µM | > 100 µM | > 100 µM | > 100 µM | > 100 µM | > 100 µM | > 100 µM | > 100 µM | > 100 µM | > 100 µM | > 100 µM | > 100 µM | > 100 µM | 0.378 µM | > 100 µM | > 100 µM | > 100 µM
NNc1c2ccccc2nc2ccccc12 | 4.63 µM | 18.3 µM | 3.77 µM | 33.7 µM | 5.08 µM | 23.4 µM | 0.897 µM | > 100 µM | 2.59 µM | 14.4 µM | 5.94 µM | > 100 µM | 3.73 µM | 22.9 µM | 12.5 µM | 29.2 µM | 10.7 µM | 60.7 µM | 4.89 µM | 40.6 µM
O=NN(CCCl)C(=O)NC1CCC(=O)NC1=O (stereo not drawn) |  | 684 µM |  | > 1190 µM |  | 442 µM |  | 329 µM |  | 485 µM |  | 615 µM |  | 309 µM |  | 405 µM |  | 1030 µM |  | 305 µM
Oc1c(Cl)cc(Cl)c2cccnc12 | 3.43 µM | 13.4 µM | 3.75 µM | 13.8 µM | 3.84 µM | > 100 µM | 3.41 µM | 17.8 µM | 1.83 µM | 4.85 µM | 3.39 µM | > 100 µM | 4.08 µM | 71.1 µM | 3.83 µM | 11.5 µM | 3.96 µM | 29.4 µM | 2.67 µM | 55 µM
Cn1nnc2c(C(N)=O)ncn2c1=O |  | > 100 µM |  | > 100 µM |  | > 100 µM |  | > 100 µM |  | > 100 µM |  | > 100 µM |  | > 100 µM |  | > 100 µM |  | > 100 µM |  | > 100 µM
COc1cccc(C2C(C#N)=C(N)Oc3c2ccc2ccccc32)c1 (stereo not drawn) | 0.132 µM | 0.639 µM | < 0.01 µM | 12.8 µM | < 0.01 µM |  | 0.0409 µM | 17.8 µM | < 0.01 µM |  | 0.0315 µM | 10.5 µM | 0.0166 µM | 0.0695 µM | 0.0588 µM | 16.5 µM | 2.31 µM | 24.5 µM | 0.0213 µM | 11.1 µM
O=C1CCC(N2C(=O)c3cccc(NCCCC4CCN(CCNC(=O)c5cc6c(o5)C(=O)c5ccccc5C6=O)CC4)c3C2=O)C(=O)N1 (stereo not drawn) | 0.266 µM | 0.808 µM | 0.0102 µM | 0.215 µM | 0.182 µM | 0.335 µM | 1.93 µM | 13.8 µM | 1.5 µM | 3.27 µM | 2.06 µM | 7.65 µM | 1.32 µM | 2.59 µM | 1.27 µM | 3.6 µM | 1.88 µM | 4.57 µM | 1.14 µM | 2.45 µM
O=C1CSC(c2ccccc2O)N1c1nnc(Cn2ccnc2)o1 (stereo not drawn) | 12.9 µM | 45.7 µM | 5.43 µM | 23.5 µM | 2.35 µM | 8.55 µM | 5.23 µM | > 100 µM | 12 µM | 33 µM | 10.8 µM | 48 µM | 8.83 µM | 68.5 µM | 15.2 µM | 36.4 µM | 13.8 µM | 41.2 µM | 11.7 µM | 63.6 µM
O=c1cccc(C#CC#CCCCO)o1 | 2.94 µM | 7.87 µM | 5.02 µM | 38.3 µM | 4.99 µM | 13.6 µM | 4.82 µM | > 28.8 µM | 3.55 µM | > 32 µM | 7.71 µM | 18.5 µM | 4.6 µM | > 43.5 µM | 12.6 µM | > 100 µM | 5.85 µM | 22.2 µM | 2.74 µM | 7.96 µM
C=CCCCOC1[C@H](OCc2ccccc2)C(OCc2ccccc2)C(OC)O[C@@H]1CNC(=O)c1cccc(I)c1 (stereo partly drawn) | 5.02 µM | > 100 µM | 3.5 µM | > 100 µM | 5.31 µM | > 100 µM | 1.9 µM | > 100 µM | 33 µM | > 100 µM | 5.38 µM | > 100 µM | 4.38 µM | 76.4 µM | 48.1 µM | > 100 µM | 8.51 µM | > 100 µM | 4.66 µM | > 100 µM
O=[N+]([O-])c1ccc2c(Nc3ccccc3-c3ccccc3Nc3c4ccccc4nc4cc([N+](=O)[O-])ccc34)c3ccccc3nc2c1 |  | 9.53 µM |  | 39.3 µM |  | 3.8 µM |  | 50.4 µM |  | 17.4 µM |  | 49.8 µM |  | 39.5 µM |  | 6.55 µM |  | 59.1 µM |  | 22.9 µM
O=C(NN1C(=O)CSC1c1ccc(F)cc1)C(O)c1ccccc1 (stereo not drawn) | > 100 µM | > 100 µM | > 100 µM | > 100 µM | > 100 µM | > 100 µM | > 100 µM | > 100 µM | 93.6 µM | > 100 µM | > 100 µM | > 100 µM | > 100 µM | > 100 µM | > 100 µM | > 100 µM | > 100 µM | > 100 µM | 97.4 µM | > 100 µM
O=C(O)COc1ccc(C(=O)/C(SS/C(C(=O)c2ccc(OCC(=O)O)c(Cl)c2Cl)=C2\C=C(c3ccc(Br)cc3)SS2)=C2/C=C(c3ccc(Br)cc3)SS2)c(Cl)c1Cl |  | 14.9 µM |  | 13.2 µM |  | > 100 µM |  | 15 µM |  | 3.95 µM |  | 34 µM |  | 26.2 µM |  | 33.7 µM |  | > 100 µM |  | 28.2 µM
COc1cccc(CC(C)=C(c2ccc(OCCCN(C)C)cc2)c2ccc(OCCCN(C)C)cc2)c1 | 0.432 µM | 0.868 µM | 0.441 µM | 0.859 µM | 0.444 µM | 0.819 µM | 0.502 µM | 1.11 µM | 0.452 µM | 1 µM | 0.683 µM | 2.05 µM | 0.437 µM | 0.801 µM | 0.601 µM | 1.65 µM | 0.448 µM | 0.822 µM | 0.479 µM | 0.987 µM
C=C1CC[C@@H]2[C@](C)(COC(C)=O)[C@H](OC(C)=O)CC[C@@]2(C)[C@@H]1CC(Nc1ccc(S(=O)(=O)Nc2nccs2)cc1)C1=CCOC1=O (stereo partly drawn) | 3.14 µM | 10.5 µM | 2.59 µM | 13.6 µM | 3.29 µM | 12.7 µM | 3.68 µM | 73.2 µM | 1.72 µM | 4.32 µM | 11.3 µM | 25.9 µM | 2.35 µM | 6.31 µM | 10.6 µM | 24.4 µM | 3.95 µM | 15.1 µM | 1.86 µM | 3.5 µM
COc1cc(/C=C/[N+](=O)[O-])cc(OC)c1OC | 1.7 µM | 3.33 µM | 3.08 µM | 14.6 µM | 2.8 µM | 10.2 µM | 4.56 µM | 34.1 µM | 1.79 µM | 3.57 µM | 4.39 µM | 15.2 µM | 2.19 µM | 4.36 µM | 3.05 µM | 7.11 µM | 2.23 µM | 4.9 µM | 2.86 µM | 10.9 µM
COc1ccc2c(c1)C(=O)c1c-2c(N2CCNCC2)nc2ccccc12 | 1.66 µM | 3.28 µM | 1.28 µM | 2.58 µM | 4.93 µM | 17.9 µM | 0.688 µM | 3.03 µM | 3.95 µM | 17 µM | 2.14 µM | 11.9 µM | 3.8 µM | 12.7 µM | 4.62 µM | 21.2 µM | 1.85 µM | 3.46 µM | 4.6 µM | 16.6 µM
